{
  "source": "patent US7754773B2",
  "about": "“Composition and synthesis of new reagents for inhibition of HIV replication” (priority 2005, dated 2010)",
  "key": {"[1]": {"test_system": "HIV-1 (X4-tropic HIV-1 variant (HIV-1LAI))", "test": "Dose-response of RT activity in HIV-1 infected H9 cells", "assay_type": "cell-based", "details": "H9 cells infected with HIV-1LAI; for RT activity / infectivity, dose response: 0, 1, 5, 10, 25 or 50 μM", "protocol": "To evaluate the efficacy of Vif inhibitor 1 on RT activity, a dose-response experiment was conducted in infected H9 cells.\nBriefly, H9 cells plated at 2×10^5 per well in a 24 well plate were treated overnight with DMSO, plus 0, 1, 5, 10, 25 or 50 μM Vif inhibitor 1 (all at 0.5% DMSO) then infected with HIV-1 (X4-tropic HIV-1 variant (HIV-1LAI)) at 2×10^5 cpm RT per well. All cells were maintained in the presence of DMSO or Vif inhibitor 1 for 14-21 days and viral replication monitored by measurement of reverse transcriptase activity in culture supernatants every second day. Calculation of % relative infectivity was determined on day 7, which was previously determined to be the peak of viral infectivity. Range correction involved fitting cpm data to a 2 parameter equation where the lower limit is 0, i.e. background correction, and the upper data limit is 100, i.e. the data is range corrected. Grafit software was used for the curve fit and calculation of the I.C.50 value."}, "Vif [2]": {"target": "T1, Vif (Human immunodeficiency virus type 1 group M subtype B, UniProt P12504)", "T1 construct": "pNL4-3 (Vif) was used at 50 fmol, and APOBEC3G at 15 fmol; expressed in transfected cells", "T1 sequence (P12504 whole entry)": "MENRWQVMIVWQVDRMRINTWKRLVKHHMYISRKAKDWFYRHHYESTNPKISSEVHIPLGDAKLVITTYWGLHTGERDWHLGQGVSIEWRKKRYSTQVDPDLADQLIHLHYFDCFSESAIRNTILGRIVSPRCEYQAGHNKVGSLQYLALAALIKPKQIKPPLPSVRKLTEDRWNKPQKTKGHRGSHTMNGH", "test": "Western blot of Vif in transfected 293T cell lysates", "assay_type": "cell-based, HIV-1", "details": "293T cells, pNL-Luc-E-R-, pVSV-G, APOBEC3G-HA; 3.125-50 μM; 24 hours post-drug", "protocol": "(§1) To determine the effect of Vif inhibitor 1 on expression of Vif and APOBC3G, 293T cells were transfected with pNL-Luc-E-R-, pVSV-G, and 15 fmoles APOBEC3G-HA. 4 hours post-transfection, the cells were treated with 3.125, 6.25, 12.5, 25, 50 μM Vif inhibitor 1 or DMSO equivalent as a control. Twenty-four hours post-drug addition, 293T total cell lysates (15 ug) were prepared, and protein lysates examined for APOBEC3G, Vif and, cyclin T1."}, "APOBEC3G [3]": {"test_system": "APOBEC3G", "test": "Western blot of APOBEC3G in transfected 293T cell lysates", "assay_type": "cell-based, human", "details": "293T cells, pNL-Luc-E-R-, pVSV-G, APOBEC3G-HA; 3.125-50 μM; 24 hours post-drug", "protocol": "as §1"}, "pNL-Luc-E-R- virus": {"test_system": "pNL-Luc-E-R- virus", "test": "Infectivity of virus from treated producer cells on 293T cells", "assay_type": "cell-based, HIV-1", "details": "293T cells infected 48 hours with 1 ng virus; producer cells treated with 3.125-50 μM", "protocol": "Infectivity was determined by infecting 293T cells for 48 hours with 1 ng virus produced from the producer cells in the experiments shown in FIG. 21A. The infectivity of the sample of virus produced without APOBEC3G was normalized to 100%, and data was representative of three independent experiments."}, "APOBEC3G [4]": {"test_system": "APOBEC3G", "test": "APOBEC3G-HA level co-expressed with pNL4-3-LucE-R-, Western blot", "assay_type": "cell-based, human", "details": "3.75, 7.5, 15 or 30 fmoles APOBEC3G-HA; 5 uM", "protocol": "(§2) To evaluate the effect of Vif inhibitor 1 on levels of APOBEC3G and APOBEC3F proteins, a dose-response experiment was performed. pNL4-3-LucE-R- was co-expressed with 3.75, 7.5, 15, or 30 fmoles APOBEC3G-HA (or APOBEC3F-HA) in the absence (DMSO) or presence (5 uM) of Vif inhibitor 1. The pNL4-3-LucE-R- ΔVif with the same amounts of APOBEC3G or F in the presence of DMSO were used as controls. APOBEC3G or APOBEC3F expression was confirmed by Western blot using an α HA anti body, with cyclin T1 used as the internal control."}, "APOBEC3F": {"test_system": "APOBEC3F", "test": "APOBEC3F-HA level co-expressed with pNL4-3-LucE-R-, Western blot", "assay_type": "cell-based", "details": "3.75, 7.5, 15 or 30 fmoles APOBEC3F-HA; 5 uM", "protocol": "as §2"}, "Vif [5]": {"target": "T1, Vif", "test": "Vif protein levels in H9 cells infected with pNL4-3Luc-E-R-", "assay_type": "cell-based, HIV-1", "details": "12.5, 25 or 50 μM, 48 hours", "protocol": "To evaluate the effect of Vif inhibitor 1 on levels of Vif protein, H9 cells were infected with pNL4-3Luc-E-R- using a spinoculation procedure with the virus equivalent of 1 μg pNL4-3 Luc-E-R- or Δ Vif pNL4-3 Luc-E-R- (as measured using p24 ELISA). […] H9 total cell lysates were then prepared, and 20 μg of lysate examined for the presence of cyclin T1, endogenous APOBEC3G, p24, and Vif, the latter two indicative of virus infection."}, "Vif [6]": {"target": "T1, Vif", "test": "Vif protein levels in H9 versus MT4 cells infected with pNL4-3Luc-E-R-", "assay_type": "cell-based, HIV-1", "details": "50 μM; 48 hours", "protocol": "To determine whether there was a difference in the effect of Vif inhibitor 1 on Vif protein levels in permissive versus non-permissive cells, H9 and MT4 cells were infected using a spinoculation procedure with the virus equivalent of 1 μg pNL4-3 Luc-E-R- or Δ Vif pNL4-3 Luc-E-R- (as measured using p24 ELISA). Immediately following infection, H9 or MT4 cells were washed and incubated in complete RPMI medium with 10% FCS containing DMSO (0.5%) or 50 μM Vif inhibitor 1 (also 0.5% DMSO) for 48 hours. H9 or MT4 total cell lysates were then prepared, and 20 μg of lysate was examined for the presence of cyclin T1, endogenous APOBEC3G, p24, and Vif, the latter two being indicative of virus infection."}, "pNLA1-YFP (Vif activity)": {"target": "T2, pNLA1-YFP (Vif activity) (Human immunodeficiency virus type 1 group M subtype B, UniProt P69723)", "T2 construct": "YFP; expressed in transfected cells; host or cells: 293T cells", "T2 sequence (P69723 whole entry)": "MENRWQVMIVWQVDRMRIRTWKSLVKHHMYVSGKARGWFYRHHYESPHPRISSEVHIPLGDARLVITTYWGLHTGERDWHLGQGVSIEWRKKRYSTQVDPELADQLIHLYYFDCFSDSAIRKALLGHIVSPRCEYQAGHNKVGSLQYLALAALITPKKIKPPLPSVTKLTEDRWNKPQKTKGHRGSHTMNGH", "test": "pNLA1-YFP fluorescence in transfected 293T cells", "assay_type": "cell-based, HIV-1", "details": "3.125-50 μM, with or without 15 fmoles pAPOBEC3G-HA, 24 hours", "protocol": "293T cells transfected with 50 fmoles pNLA1-YFP or pNLA1-YFP with 15 fmoles pAPOBEC3G-HA were treated 4 HRS post-transfection with 3.125, 6.25, 12.5, 25, 50 μM Vif inhibitor 1 or DMSO equivalent (0). Twenty-four hours post-drug addition, 293T total cell lysates were prepared and normalized to equal protein amounts prior to being monitored, in triplicate, for YFP fluorescence. Curve fits for full dose responses of Vif inhibitor 1 are shown, and calculation of “% Vif activity” for concentration of compound Vif inhibitor 1 was determined using Grafit software."}},
  "data": [
    {"smiles": "COc1ccccc1NC(=O)c1ccccc1Sc1ccc([N+](=O)[O-])cc1", "note": "[Vif inhibitor 1, 2-(4-Nitrophenylthio)-N-(2-methoxyphenyl)benzamide]", "values": [
      {"measurement": "RT activity / infectivity, dose response", "setting": "[1]", "value": "inhibits RT activity in a dose dependent manner"},
      {"measurement": "RT activity / infectivity, dose response", "setting": "[1]; listed as Vif Inhibitor 1", "value": "dose-dependent decrease in infectivity"},
      {"measurement": "IC50", "setting": "[1]; Human immunodeficiency virus 1, 168 h, 0-50 μM, determined on day 7, read-out: I.C.50 of RT activity (% relative infectivity)", "value": "~6.4", "unit": "µM"},
      {"measurement": "Vif expression", "setting": "Vif [2]", "value": "decreases Vif expression"},
      {"measurement": "APOBEC3G expression", "setting": "APOBEC3G [3]", "value": "increases APOBEC3G expression"},
      {"measurement": "Infectivity of virus produced from treated producer cells", "setting": "pNL-Luc-E-R- virus", "value": "decrease infectivity in a dose-dependent manner"},
      {"measurement": "APOBEC3G level", "setting": "APOBEC3G [4]", "value": "increases"},
      {"measurement": "APOBEC3F level", "setting": "APOBEC3F", "value": "increases"},
      {"measurement": "Levels of Vif protein in H9 cells", "setting": "Vif [5]", "value": "significantly reduces levels of Vif protein"},
      {"measurement": "Levels of Vif protein, non-permissive H9 versus permissive MT4 cells", "setting": "Vif [6]", "value": "significantly reduces levels of Vif protein in non-permissive H9 cells compared to permissive MT4 cells"},
      {"measurement": "pNLA1-YFP fluorescence (% Vif activity)", "setting": "pNLA1-YFP (Vif activity)", "value": "dose-dependent decrease in pNLA1-YFP only in the presence of APOBEC3G"}
    ]}
  ]
}
